Columns and labels:
Assay in all cases: relative viability (nuclei count vs DMSO), 5 days (fraction); higher = more cells survive
[1] = compound: CC(C)C[C@H](NC(=O)[C@H](Cc1ccccc1)NC(=O)c1cnccn1)B(O)O [Bortezomib] + CCNC(=O)c1noc(-c2cc(C(C)C)c(O)cc2O)c1-c1ccc(CN2CCOCC2)cc1 [Luminespib] (partner 0.01 µM)
Procedure, shortened: (§1)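 Five library-drug doses in √10 steps were combined with a fixed anchor-drug dose, or a single drug was given alone, by pin tool to lung cancer cell lines in 1536-well plates the day after seeding. Nuclei were stained and counted after 5 days. Relative viability is the nuclei count in treated wells over that in vehicle wells, taken as the median of duplicate plates.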

[2] = compound: CC(C)C[C@H](NC(=O)[C@H](Cc1ccccc1)NC(=O)c1cnccn1)B(O)O [Bortezomib] + CS(=O)(=O)CCNCc1ccc(-c2ccc3ncnc(Nc4ccc(OCc5cccc(F)c5)c(Cl)c4)c3c2)o1 [Lapatinib] (partner 2 µM)
Procedure, shortened: as §1

[3] = compound: CC1=CC(=NN1)NC2=CC(=NC(=N2)/C=C/C3=CC=CC=C3)N4CCN(CC4)C + Cc1nc(Nc2ncc(C(=O)Nc3c(C)cccc3Cl)s2)cc(N2CCN(CCO)CC2)n1 [Dasatinib] (partner 0.075 µM)
Procedure, shortened: as §1

[4] = compound: CC1=CC(=NN1)NC2=CC(=NC(=N2)/C=C/C3=CC=CC=C3)N4CCN(CC4)C + Nc1ncn([C@H]2C[C@H](O)[C@@H](CO)O2)c(=O)n1 [Decitabine] (partner 2 µM)
Procedure, shortened: as §1

Cell Line	relative viability ([1]; first compound 0.0002 µM)	relative viability ([1]; first compound 0.000632 µM)	relative viability ([1]; first compound 0.002 µM)	relative viability ([1]; first compound 0.006325 µM)	relative viability ([1]; first compound 0.02 µM)	relative viability ([2]; first compound 0.0002 µM)	relative viability ([2]; first compound 0.000632 µM)	relative viability ([2]; first compound 0.002 µM)	relative viability ([2]; first compound 0.006325 µM)	relative viability ([2]; first compound 0.02 µM)	relative viability ([3]; first compound 0.08 µM)	relative viability ([3]; first compound 0.253 µM)	relative viability ([3]; first compound 0.8 µM)	relative viability ([3]; first compound 2.53 µM)	relative viability ([3]; first compound 8 µM)	relative viability ([4]; first compound 0.08 µM)	relative viability ([4]; first compound 0.253 µM)	relative viability ([4]; first compound 0.8 µM)	relative viability ([4]; first compound 2.53 µM)	relative viability ([4]; first compound 8 µM)
NCI-H2087	0.163	0.145	0.164	0.0644	0.0565	0.897	0.951	0.541	0.114	0.0853	0.934	0.601	0.627	0.182	0.0767	0.294	0.193	0.265	0.0921	0.0912
NCI-H2126	0.864	0.904	0.821	0.543	0.213	0.762	0.757	0.762	0.727	0.595	0.64	0.696	0.662	0.476	0.189	0.602	0.595	0.55	0.561	0.27
NCI-H2170	0.46	0.534	0.744	0.516	0.202	0.253	0.266	0.306	0.266	0.2	0.573	0.563	0.471	0.203	0.112	0.452	0.51	0.467	0.373	0.251
NCI-H2347	0.558	0.607	0.411	0.25	0.208	0.922	1.05	0.942	0.849	0.37	0.297	0.305	0.336	0.293	0.24	0.606	0.636	0.561	0.549	0.394
NCI-H2405	0.685	0.763	0.615	0.227	0.189	0.817		1.01	0.112	0.121	0.227	0.216	0.206	0.165	0.109	0.758	0.618	0.687	0.615	0.171
NCI-H3122	0.103	0.0765	0.105	0.118	0.113	0.943	1.01	1.01	0.902	0.202	0.9	0.633	0.811	0.551	0.176	0.372	0.364	0.46	0.379	0.298
PC-3 [JPC-3]	0.663	0.669	0.505	0.226	0.127	0.469	0.453	0.49	0.364	0.16	0.931	1.04	0.978	0.948	0.802	0.807	0.882	0.806	0.834	0.543
PC-14	0.153	0.163	0.13	0.0991	0.109	0.323	0.356	0.354	0.239	0.0862	0.273	0.211	0.22	0.0234	0.0115	0.179	0.2	0.253	0.0601	0.0537
RERF-LC-KJ	1.16	1.21	0.986	0.291	0.273	0.82	0.91	0.846	0.653	0.242	0.908	0.944	0.837	0.249	0.166	0.73	0.677	0.695	0.272	0.242
SK-LU-1	0.218	0.205	0.201	0.155	0.118	0.781	0.894	0.497	0.13	0.146	0.174	0.171	0.156	0.108	0.0621	0.594	0.661	0.618	0.396	0.183
SK-MES-1	0.801	0.763	0.72	0.166	0.156	0.487	0.45	0.506	0.423	0.214	0.479	0.322	0.493	0.139	0.0976	0.402	0.379	0.331	0.187	0.11
SW 1573	0.162	0.222	0.214	0.0768	0.0532	1.03	1.09	1.14	0.308	0.0835	0.545	0.578	0.517	0.0958	0.0582	0.51	0.652	0.451	0.111	0.0605
UMC-11	0.871	0.978	0.972	0.597	0.167	0.813	0.846	0.837	0.375	0.149	0.487	0.426	0.329	0.163	0.125	0.722	0.609	0.562	0.282	0.209
